Patent US12465591B2, “Use of carbamate compound for preventing, alleviating or treating diabetic peripheral neuropathy or chemotherapy-induced peripheral neuropathy” (SK BIOPHARMACEUTICALS CO., LTD., priority 2018, dated 2025)

Assays:
[1] = system: streptozotocin (STZ)-induced diabetic peripheral neuropathic pain rat model (mechanical allodynia); test: von Frey test of mechanical allodynia in streptozotocin (STZ)-induced diabetic peripheral neuropathic pain rat model; format: in vivo, rat (Sprague-Dawley); details: for bending force before administration: day 24, immediately before that day's dose
Method: (§1) Male rats (Sprague-Dawley, 160 to 180 g, Harlan Laboratories, Israel) were purchased and subjected to acclimatization for more than 1 week at an animal laboratory. The experimental animals were maintained at a light-and-darkness cycle of 12 hours, a temperature of 20 to 24° C., a relative humidity of 40 to 60%, and free access to water and food.
(§2) The degree of pain was assessed by withdrawal (avoidance response) using von Frey filaments. Mechanical stimuli were applied to the right hind paw by the use of an up-down method, and the lowest bending force showing avoidance response was defined as the paw withdrawal threshold (J Neurosci Methods, 1994; 53 (1): 55-63). First, the rats were placed in an acrylic box (13×25×13 cm^3) located on a wire mesh installed at a height of about 35 cm from the floor and stabilized for more than 20 minutes. Among von Frey filaments with various bending forces (0.008, 0.02, 0.04, 0.07, 0.16, 0.4, 0.6, 1.0, 1.4, 2.0, 4.0, 6.0, 8.0, 10.0, 15.0, 26.0, 60.0, 100, 180 and 300 g), the stimulus was started with 2.0 g of filament. The stimulus was applied to the extent of slightly bending in the direction perpendicular to the plantar surface, and the rats were stimulated with a filament with lower or higher bending force, depending on with and without reaction,
This experiment was conducted to investigate the analgesic effects of compound treatment at two different doses (10 mg/kg and 30 mg/kg) in a diabetic peripheral neuropathic pain model of rats induced by streptozotocin (STZ).
Diabetes was induced by 0.5 ml injection of streptozotocin (60 mg/kg) dissolved in citrate buffer (pH=6) into the tail vein of the rat. Animals were placed under a red lamp before injection and locked in a restraint device for administration.
In a streptozotocin (STZ)-induced diabetic peripheral neuropathic pain rat model, diabetic peripheral neuropathy was induced between 14 and 24 days after injection of STZ through the tail blood vessel of the rat. Blood glucose levels (BGL) of all animals on day 3 of the test were used to determine whether diabetes was induced, and on day 14, animals showing signs of mechanical allodynia by von Frey test were tested for BGL on day 14 and 23 of the experiment (FIG. 1).
After the experiment, all animals were euthanized with CO2.
(§3) Each experimental group was compared with the negative control group by using one-way ANOVA and Tukey […] post-test (Prism® GraphPad).

[2] = system: taxol-induced peripheral neuropathy model (mechanical allodynia); test: von Frey test of mechanical allodynia in taxol-induced peripheral neuropathy rat model; format: in vivo, rat (Sprague-Dawley)
Method: as §1
as §2, with “reaction.” for “reaction,”
To induce peripheral neuropathy, 2 mg/kg of taxol—which is an anticancer agent commonly used for the treatment of solid cancers—was intraperitoneally (IP) administered at a dose of 0.5 ml/kg on days 1, 3, 5, 7 and 9. To confirm the induction of allodynia, von Frey test was used, and in the study only animals having […] or less of average pain threshold of hind paws were included.
On day 13 of the experiment, only animals—in which allodynia was verified by von Frey test—were selected as experimental groups, Test Compounds (10 mg/kg and 30 mg/kg) and vehicle as the negative control were orally administered 2 hours before the pain test on day 13 and day 14. Morphine (5 mg/kg) as the positive control was administered 30 minutes prior to the pain test by intraperitoneal administration on day 13 and day 14 of the experiment. After the experiment, all animals were euthanized with CO2.
as §3

## NC(=O)O[C@@H](Cn1ncnn1)c1ccccc1Cl [Test Compound]
[1]; 10 mg/kg, efficacy similar to 150 mg/kg of gabapentin
  pain reduction compared to the negative control: ~75%
[1]; day 14, 10 mg/kg PO
  allodynia suppressive effect compared to vehicle: a tendency of allodynia suppressive effect
  inhibition of allodynia, pre-treatment vs. post-treatment: the induction of allodynia was significantly inhibited
[1]; day 14, 30 mg/kg PO
  allodynia suppressive effect compared to vehicle: a tendency of allodynia suppressive effect
  inhibition of allodynia, pre-treatment vs. post-treatment: the induction of allodynia was significantly inhibited
[1]; day 14, 2 hours after administration, 10 mg/kg PO, vehicle 34.50±6.61 g
  mean bending force (paw withdrawal threshold, von Frey): 46.09 ± 4.48 g
[1]; day 24, 10 mg/kg PO
  allodynia suppressive effect compared to vehicle: significant allodynia suppressive effect
  inhibition of allodynia, pre-treatment vs. post-treatment: the induction of allodynia was significantly inhibited
[1]; day 24, 30 mg/kg PO
  allodynia suppressive effect compared to vehicle: significant allodynia suppressive effect
  inhibition of allodynia, pre-treatment vs. post-treatment: the induction of allodynia was significantly inhibited
[1]; day 24, after administration, daily dosing from day 14, 10 mg/kg PO, vehicle 22.85±3.86 g
  mean bending force (paw withdrawal threshold, von Frey): 44.36 ± 3.63 g
[1]; after daily dosing from day 14, 10 mg/kg PO
  bending force before administration: 25.18 ± 2.96 g
[1]; after daily dosing from day 14, 30 mg/kg PO
  bending force before administration: 23.55 ± 2.52 g
[2]; day 13, 10 mg/kg orally, 2 hours before the pain test
  inhibitory effect on the induction of allodynia compared to the vehicle-administration group: a tendency to inhibit the induction of allodynia
[2]; day 13, 30 mg/kg orally, 2 hours before the pain test
  inhibitory effect on the induction of allodynia compared to the vehicle-administration group: a significant inhibitory effect on the induction of allodynia
[2]; day 14, 10 mg/kg orally, 2 hours before the pain test
  inhibitory effect on the induction of allodynia compared to the vehicle-administration group: a tendency to inhibit the induction of allodynia
[2]; day 14, 30 mg/kg orally, 2 hours before the pain test
  inhibitory effect on the induction of allodynia compared to the vehicle-administration group: a significant inhibitory effect on the induction of allodynia

## NCC1(CC(=O)O)CCCCC1 [gabapentin, reference compound]
[1]; day 14, 150 mg/kg IP
  allodynia suppressive effect compared to vehicle: no significant allodynia suppressive effect
  inhibition of allodynia, pre-treatment vs. post-treatment: the induction of allodynia was significantly inhibited
[1]; day 14, 2 hours after administration, 150 mg/kg IP, vehicle 34.50±6.61 g
  mean bending force (paw withdrawal threshold, von Frey): 51.85 ± 4.91 g
[1]; day 24, 150 mg/kg IP
  allodynia suppressive effect compared to vehicle: significant allodynia suppressive effect
  inhibition of allodynia, pre-treatment vs. post-treatment: the induction of allodynia was significantly inhibited
[1]; day 24, after administration, daily dosing from day 14, 150 mg/kg IP, vehicle 22.85±3.86 g
  mean bending force (paw withdrawal threshold, von Frey): 45.30 ± 4.63 g
[1]; after daily dosing from day 14, 150 mg/kg IP
  bending force before administration: 25.50 ± 3.95 g

## CN1CC[C@]23c4c5ccc(O)c4O[C@H]2[C@@H](O)C=C[C@H]3[C@H]1C5 [morphine, Morphine, reference compound]
[2]; day 13, 5 mg/kg IP, 30 minutes prior to the pain test
  inhibitory effect on the induction of allodynia compared to the vehicle-administration group: a significant inhibitory effect on the induction of allodynia
[2]; day 14, 5 mg/kg IP, 30 minutes prior to the pain test
  inhibitory effect on the induction of allodynia compared to the vehicle-administration group: a significant inhibitory effect on the induction of allodynia
